Reference: ChEMBL document CHEMBL1201862, “PubChem BioAssay data set” (2004)
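Each compound was tested at five concentrations against cells in 96-well plates for 48 hours. GI50 is the concentration that inhibits growth by half.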 Calls of active or inactive are those of the source. No stated cut-off is given here; in the data, active = GI50 up to about 1.1 µM and inactive = higher.

Legend:
Experiment in all cases: inhibition of tumour cell growth, NCI panel, 48 h
[1] = system: Hs-578T
[2] = system: OVCAR-5
[3] = system: HCC 2998
[4] = system: MOLT-4
[5] = system: HCT-116
[6] = system: DU-145
[7] = system: M14
[8] = system: SNB-75
[9] = system: NCI-H522
[10] = system: 786-0
[11] = system: COLO 205
[12] = system: TK-10
[13] = system: MCF7
[14] = system: NCI-H226
[15] = system: UO-31
[16] = system: RPMI-8226
[17] = system: SK-MEL-28
[18] = system: SK-OV-3
[19] = system: HL-60
[20] = system: UACC-257

Measured: GI50

Clc1ccc(/C(=C/c2ccccc2)Cn2ccnc2)cc1
inactive: [1] 44.5 µM | [2] 44.9 µM | [3] 42.7 µM | [4] 13.6 µM | [5] 9.08 µM | [6] 33 µM | [7] 21.9 µM | [8] 18.6 µM | [9] 11.9 µM | [10] 30.5 µM | [11] 18.6 µM | [12] 56.1 µM | [13] 20.4 µM | [14] 12.9 µM | [15] 3.39 µM | [16] 18.2 µM | [17] 30.1 µM | [18] 19.1 µM | [19] 14.3 µM | [20] 30.5 µM

OCC(Cn1cncn1)(c1ccc(F)cc1F)n1cncn1 (stereo not given)
inactive: [1] > 100 µM | [2] > 100 µM | [3] > 100 µM | [4] > 100 µM | [5] > 100 µM | [6] > 100 µM | [7] > 100 µM | [8] > 100 µM | [9] > 100 µM | [10] 66.1 µM | [11] > 100 µM | [12] > 100 µM | [13] > 100 µM | [14] > 100 µM | [15] > 100 µM | [16] > 100 µM | [17] > 100 µM | [18] > 100 µM | [19] > 100 µM | [20] > 100 µM

CCOC(=O)c1ccc(Nc2nc3cc(C(F)(F)F)ccc3nc2C(=O)OCC)cc1
inactive: [1] > 100 µM | [2] > 100 µM | [3] 22.1 µM | [4] > 100 µM | [5] 34.2 µM | [6] > 100 µM | [7] 34.2 µM | [8] 40.2 µM | [9] > 100 µM | [10] 25.4 µM | [11] 46.9 µM | [12] 26.4 µM | [13] > 100 µM | [15] > 100 µM | [16] > 100 µM | [17] > 100 µM | [18] 44.5 µM | [19] > 100 µM | [20] > 100 µM

COC(=O)c1ccccc1CC1Cc2c(C)ccc(C)c2C1=O (stereo not given)
inactive: [1] 33.3 µM | [2] 49.1 µM | [3] 36.9 µM | [4] 19.6 µM | [5] 16.5 µM | [6] 50.5 µM | [7] 34.8 µM | [8] 36.1 µM | [9] 21.6 µM | [10] 36.3 µM | [11] 19.1 µM | [12] 20.5 µM | [13] 11.2 µM | [14] 38.9 µM | [15] 25.8 µM | [17] 48 µM | [18] 38.6 µM | [19] 23.3 µM | [20] 16.2 µM

CC(=O)CCCCC(=O)Nc1ccc(CC(NC(=O)OC(C)(C)C)C(=O)NCC(=O)OCc2ccccc2)cc1 (stereo not given)
inactive: [1] 16.1 µM | [2] 63.4 µM | [3] 16.4 µM | [4] 24.1 µM | [5] 19.6 µM | [6] 32.7 µM | [7] 17.5 µM | [8] 4.44 µM | [9] 23.6 µM | [10] 21.7 µM | [11] 18.5 µM | [12] 63.1 µM | [13] 24.7 µM | [14] 34.8 µM | [15] 22.7 µM | [16] 18 µM | [17] 19.3 µM | [18] 23 µM | [19] 19.5 µM

c1cc2c(cc1NC1=NCCO1)OCO2
inactive: [1] > 100 µM | [2] > 100 µM | [3] > 100 µM | [4] > 100 µM | [5] > 100 µM | [6] > 100 µM | [7] > 100 µM | [8] 45.9 µM | [9] > 100 µM | [10] > 100 µM | [11] > 100 µM | [12] > 100 µM | [13] > 100 µM | [14] > 100 µM | [15] > 100 µM | [16] > 100 µM | [17] > 100 µM | [18] > 100 µM | [19] 41.2 µM

CN(C)c1ccc(/C=C/c2ccnc3ccccc23)cc1N
inactive: [1] 15.3 µM | [2] 13.7 µM | [3] 10.1 µM | [4] 5.64 µM | [6] 10.4 µM | [7] 10.6 µM | [8] 6.5 µM | [10] 12.6 µM | [11] 2.53 µM | [12] 5.16 µM | [13] 1.57 µM | [14] 11.4 µM | [15] 7.55 µM | [16] 2.52 µM | [17] 13 µM | [18] 15.2 µM | [19] 3.52 µM | [20] 2.42 µM

O=C(CCl)N1CCN(c2ccccn2)CC1
inactive: [1] 42.8 µM | [2] 20.7 µM | [3] 19.4 µM | [4] 31.7 µM | [5] 32.3 µM | [6] > 100 µM | [7] 16.6 µM | [8] > 10 µM | [10] 18.4 µM | [11] 24.2 µM | [12] 19.5 µM | [13] 23.9 µM | [15] 21.8 µM | [16] 31.8 µM | [17] 20 µM | [18] 46.7 µM | [19] 24.3 µM | [20] 30.3 µM

CCCc1[nH]nc(C(N)=O)c1/N=N/N(C)C
inactive: [1] 50 µM | [3] > 100 µM | [4] 15 µM | [5] 51.9 µM | [6] 49.5 µM | [7] > 100 µM | [8] 16.1 µM | [9] 17.8 µM | [10] 65.5 µM | [11] 63.2 µM | [12] 67.5 µM | [13] 20.1 µM | [14] 38.9 µM | [15] 1.16 µM | [16] 39.4 µM | [17] > 100 µM | [18] 59.7 µM | [19] 8.34 µM | [20] > 100 µM

CC(=O)OC1C[C@@H](C)C2(CC(c3ccoc3)OC2=O)C2CCC(O)C3(CO3)C12CO (stereo not given in full)
inactive: [1] > 100 µM | [2] > 100 µM | [3] > 100 µM | [4] > 100 µM | [5] > 100 µM | [6] > 100 µM | [7] > 100 µM | [8] > 100 µM | [9] > 100 µM | [10] > 100 µM | [11] > 100 µM | [12] > 100 µM | [13] > 100 µM | [14] > 100 µM | [15] > 100 µM | [16] > 100 µM | [17] > 100 µM | [19] > 100 µM | [20] > 100 µM

N#Cc1c(-c2ccccc2)[nH]c2ccccc2c1=O
inactive: [1] 19.2 µM | [2] > 100 µM | [3] > 10 µM | [4] > 100 µM | [5] 87.5 µM | [6] > 100 µM | [7] > 100 µM | [8] 15.1 µM | [10] > 100 µM | [11] > 100 µM | [12] 32.8 µM | [13] 67 µM | [14] 41.6 µM | [15] > 10 µM | [17] > 100 µM | [18] 26.2 µM | [19] 90.4 µM | [20] > 100 µM

O=C(c1ccccc1)c1sc2c(=O)c(C(=O)c3ccccc3)c(C(=O)c3ccccc3)sc2c(=O)c1C(=O)c1ccccc1
inactive: [1] 77.6 µM | [2] > 100 µM | [3] 19.5 µM | [4] 20.7 µM | [5] 44.1 µM | [6] > 100 µM | [7] 31.5 µM | [8] 24.5 µM | [9] 18 µM | [10] 32.1 µM | [11] > 100 µM | [12] 64.3 µM | [13] 23.7 µM | [14] 82.4 µM | [15] 5.97 µM | [17] > 100 µM | [18] 37.8 µM | [19] 21.5 µM | [20] > 100 µM

Cc1cn2c(/C=C3/C(=O)Nc4ccccc43)c(-c3ccccc3)nc2s1
inactive: [1] 27.7 µM | [2] > 100 µM | [3] > 100 µM | [4] > 100 µM | [5] 62.4 µM | [6] 78.3 µM | [7] > 100 µM | [8] 25.8 µM | [9] > 100 µM | [10] 17.2 µM | [11] > 100 µM | [12] 22.4 µM | [13] 29.4 µM | [15] 23.2 µM | [16] > 100 µM | [17] > 100 µM | [18] 30.1 µM | [19] > 100 µM | [20] > 100 µM

CCOC(=O)[C@@H]1ON2OC(OC3CCCC3(c3ccccc3)c3ccccc3)C(OC(C)=O)[C@H]3OC(=O)[C@@H]1C32 (stereo not given in full)
inactive: [1] > 100 µM | [3] 35.1 µM | [4] 43.3 µM | [5] 29.6 µM | [6] > 100 µM | [7] 95.7 µM | [8] > 100 µM | [9] 21.2 µM | [10] 92.3 µM | [11] > 100 µM | [12] > 100 µM | [13] 21.3 µM | [14] > 100 µM | [15] 36.4 µM | [16] > 100 µM | [17] > 100 µM | [18] > 100 µM | [19] 31.3 µM | [20] 52.5 µM
